Test results as given in paper PMC8497791 (Frontiers in Pharmacology, 2021).

What was measured:
[1] = parameters: method as in Mok et al., 2017; settings: metabolite of osimertinib; ref Mok et al., 2017; cited from earlier work
ABCB1 = target: T1, ABCB1 (Homo sapiens, UniProt P08183); test: Bidirectional transport across ABCB1-MDCK monolayers; assay type: in vitro ADME; settings: for ABCB1 transporter substrate assessment: criterion ER >2, ABCB1-MDCK vs MDCK
T1 construct: expressed in transfected cells; host or cells: MDCK (canine kidney) cells transduced with lentivirus from pLVX-CMV-ABCB1
Experimental: (§1) To establish an MDCK transgenic cell line that can stably express human ABCB1 and BCRP and to identify whether it is suitable for drug delivery experiments, lentivirus shuttle plasmids pLVX-CMV-ABCB1 and pLVX-CMV-BCRP and their auxiliary packaging plasmids PSPAX2 and PMD2G, were extracted with high purity and free of endotoxin, respectively. 293T cells were transfected with Lipofectamine™ 3000 transfection reagent, and the medium was changed 6 h after transfection. After culturing for 24 and 48 h, the cell supernatants, rich in lentivirus particles, were collected and concentrated by ultracentrifugation. Before lentivirus transfection for 18–24 h, adherent MDCK cells were spread on 24-well plates at a density of 1 × 10^5/well. The number of cells transfected with lentivirus was approximately 2 × 10^5/well. The next day, the original medium was replaced with 2 ml of fresh medium containing 6 μg/ml polybrene, and then an appropriate amount of virus suspension; the plates were incubated at 37°C. After 4 h, 2 ml of fresh medium was added to dilute polybrene. The cells were cultured for another 24 h, and the medium containing virus was replaced with fresh medium. After 3–4 days of transfection, puromycin was added to screen the cell lines stably expressing ABCB1 and BCRP.
(§2) MDCK, ABCB1-MDCK, and BCRP-MDCK cells were inoculated in Tmur75 culture bottles with high-glucose DMEM. The cells were counted using a cell counter, the cell density was adjusted to 2.0 × 10^5 cells/ml, and the cells were inoculated in 12-well transwell plates [1.13 cm^2 insert area, 0.4 µm pore size (Corning Life Sciences, New York, NY, United States)]. Thereafter, 0.5 ml of cell suspension was added to the villous surface of each hole (AP side) and 1.5 ml of blank culture medium was added to the basal surface (BL side). After 24 h of culture in the incubator, the fresh culture medium was changed on both AP and BL sides, and the medium was changed every day for 3–5 days. In this experiment, transmembrane resistance was used to evaluate the compactness and integrity of the cell model. When the transmembrane resistance (TEER) is greater than 300 Ω cm^2, the cell monolayer is considered dense and intact. The higher the TEER value, the tighter the monolayer connection. The TEER of monolayer cells was calculated using the following formula: TEER = (R - Rb) × A; where, R is the resistance of the well inoculated with cells, Rb is the blank well without cell inoculation, and A is the membrane area of the polycarbonate membrane.
(§3) Before the transport experiment, the cell monolayer was washed with blank HBSS solution at 37°C three times, and then placed in a CO2 incubator and balanced with HBSS solution for 30 min at 37°C. The transport of the AP→BL side: 0.5 ml of the test solution was added to the AP side as the supply pool, whereas 1.5 ml of blank HBSS solution was added to the BL side as the receiving pool. Before sampling, 0.1 ml of the sample was collected from the BL side in the centrifuge tube, and after sampling, 0.1 ml of blank HBSS, transport sample, was added to the BL side to precipitate protein with methanol, and used for liquid chromatography-tandem mass spectrometry (LC-MS) detection. The transport of the BL→AP side: 1.5 ml of the test solution was added to the BL side as the supply pool, whereas 0.5 ml of blank HBSS solution was added to the AP side as the receiving pool. First, 0.1 ml of the sample was collected on the AP side in the centrifuge tube, and then 0.1 ml of HBSS was added to the AP side after sampling. A transport sample was added to the AP side to precipitate the protein with methanol and used for LC-MS detection.
(§4) The protein was precipitated with methanol in 0.1 ml of blank HBSS, transport sample, and used for LC-MS detection. Drug absorption was determined by LC-MS/MS.

BCRP = target: T2, BCRP (Homo sapiens, UniProt Q9UNQ0); test: Bidirectional transport across BCRP-MDCK monolayers; assay type: in vitro ADME; settings: for BCRP transporter substrate assessment: criterion ER >2, BCRP-MDCK vs MDCK
T2 construct: expressed in transfected cells; host or cells: MDCK (canine kidney) cells transduced with lentivirus from pLVX-CMV-BCRP
T2 sequence (Q9UNQ0 1-655): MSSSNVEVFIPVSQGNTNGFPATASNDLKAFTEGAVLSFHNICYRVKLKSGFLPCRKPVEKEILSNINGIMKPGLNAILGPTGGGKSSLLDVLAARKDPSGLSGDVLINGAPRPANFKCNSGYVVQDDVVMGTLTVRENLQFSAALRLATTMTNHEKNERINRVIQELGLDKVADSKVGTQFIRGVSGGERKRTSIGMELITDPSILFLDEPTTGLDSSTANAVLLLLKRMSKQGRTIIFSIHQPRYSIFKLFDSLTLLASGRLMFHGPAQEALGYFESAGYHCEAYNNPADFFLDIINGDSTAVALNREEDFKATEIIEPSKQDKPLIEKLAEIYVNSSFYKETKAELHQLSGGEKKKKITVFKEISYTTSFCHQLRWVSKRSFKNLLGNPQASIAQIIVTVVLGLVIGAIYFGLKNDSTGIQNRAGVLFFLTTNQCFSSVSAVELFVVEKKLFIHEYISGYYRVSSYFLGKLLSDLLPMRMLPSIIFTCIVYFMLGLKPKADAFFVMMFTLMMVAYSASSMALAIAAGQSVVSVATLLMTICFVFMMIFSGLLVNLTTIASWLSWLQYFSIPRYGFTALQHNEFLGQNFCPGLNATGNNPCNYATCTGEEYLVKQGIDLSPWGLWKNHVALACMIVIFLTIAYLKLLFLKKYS
Experimental: as §1, §2, §3, §4

MDCK cell monolayers = test: Bidirectional transport across MDCK monolayers; assay type: in vitro ADME, canine
Experimental: as §2, §3, §4

[2] = mouse, in vivo, po, 25 mg/kg
Experimental: (§5) The blood and brain tissues of mice with brain metastases were sampled at 0.5, 1, 2, 4, 8, and 24 h post dosing.
(§6) Chromatographic column:Thermo Hypersil C18 100 × 2.1 mm, 3 μm; Flow rate: 0.4 ml/min; Water phase: 0.1% formic acid aqueous solution; Organic phase: 0.1% formic acid/acetonitrile; Needle wash: methanol; Column oven temperature: 40°C; Autosampler temperature: 10.0°C; Automatic sampling Injection volume of the detector: 5.00 µl.
(§7) Dilute the 2.00 mg/ml stock solution to obtain standard curve solutions with concentrations of 500, 200, 50, 2, 1, and 0.5 ng/ml.
(§8) Dissolve the serum sample at room temperature, take 50 μl, add 150 μl methanol, vortex for 5 min, place in a centrifuge at 15,000 rpm for 10 min, take the supernatant for analysis. Weigh the tissue sample, add 2 ml of methanol, grind for 5 min, vortex and mix for 5 min, place it in a centrifuge at 15,000 rpm for 10 min, and take the supernatant for analysis.

[3] = tested on: PC9-LUC brain metastatic tumor; test: Mouse brain metastasis xenograft (intracranial PC9-LUC); assay type: in vivo, BALB/c nude mice; settings: for growth of intracranial tumors (bioluminescence) / body weight of mice: 10 and 25 mg/kg once daily
Experimental: The brain metastasis model was established via intracranial injection of tumor cells into 6–8-week-old SPF female BALB/c nude mice. The tumor seeding process, which is an aseptic operation, was carried out on an ultra-clean bench. The tumor cells used in this experiment were PC9-LUC cells, and the concentration of the cell suspension was 1 × 10^8/ml. Pentobarbital sodium at 50 mg/kg body weight was administered via intraperitoneal injection. The top of the mouse skull was cut along the center of the skull from the ears to the eyes. An area of about 1–2 cm of the skull was then wiped repeatedly with a cotton swab to remove the fascia and expose the cranial sutures. Holes were then drilled 1 mm below the coronal suture of the skull and 2–2.5 mm from the sagittal suture while keeping the mouse head level. The cranial drill was inserted vertically and the drill was operated at low speed to avoid brain damage. Each mouse was then placed on the brain stereotaxic device, the tip of the syringe needle was aligned with the hole on the skull, and 3 μl of cell suspension (3 × 10^5 cells) was injected via a needle at a depth of 3 mm from the skull. The needle was maintained for 1–2 min following cell injection and then withdrawn. A cotton swab was used to compress the wound and medical adhesive was used to bond the skin wounds. Mice were then placed on a heating blanket and then returned to the animal room for recovery and ongoing nurture. Bioluminescent (BLI) signals were measured weekly using the IVIS Xenogen Imaging system (FX-PRO, United States) to monitor tumor growth. […] The BLI signal was measured once a week and the body weight of the mice was recorded.

[4] = tested on: PC9-LUC spinal cord metastases; test: Mouse spinal cord metastasis model (PC9-LUC); assay type: in vivo, nude mice; settings: for biofluorescence signal of intracranial and spinal cord tumors: vs control
Experimental: The BLI signal was measured once a week, and the body weight of the mice was recorded.
For the spinal cord metastasis model, PC9-LUC cells were injected into the brain ventricles of nude mice, and the mice were placed in an SPF environment. […] These mice were then randomly divided into five groups (five in each group) to receive various treatments. After 16 days of modeling, bioluminescence imaging was used to assess the growth and metastasis of PC9-LUC cells every week.

[5] = Bidirectional transport across MDCK monolayers; assay type: in vitro ADME, canine; settings: dog, read-out: efflux ratio (ER)
Experimental: as §2, §3, §4

[6] = tested on: EGFR 19del mutant lung adenocarcinoma and brain metastases; test: Clinical case study, EGFR 19del lung adenocarcinoma with brain metastases; assay type: in vivo, human; settings: one patient
Experimental: Herein, we present details of a clinical case study. In this case, brain metastases were recorded at the beginning of the study, and almonertinib was administered for several weeks to allow magnetic resonance imaging of the brain to observe the progression of the disease. Written informed consent was obtained from the patient. The work has been carried out in accordance with The Code of Ethics of the World Medical Association (Declaration of Helsinki).

[7] = target: EGFR T790M mutant protein (Homo sapiens, UniProt P00533, T790M); test: biochemical
Experimental: First, according to the standard procedure, a COOH sensor chip was installed on the Open SPR instrument. The buffer was run at the maximum flow rate and exhaust bubbles after reaching the signal baseline. […] The buffer flow rate was then depressed to 20 µl/min and a sample of 200 µl EDC/NHS (1:1) solution was run for 4 min. Then, the injection instrument of the 200 µl ligand was operated for 4 min. Diluted with activation buffer, Once the ligand-chip interaction was completed, the upper sample mouth was rinsed with buffer and emptied by air. Sample 200 µl Blocking (20 µl/min,4 min) solution, buffer (PBS) rinse the sample ring and empty it by air. The baseline was then observed for 5 min to ensure stability. Finally, different concentrations of analyte were injected separately on the surface of the ligand chip (the concentration is detailed in the experimental results), and the analyte was sampled at 20 µl/min. The binding time of the analyte to the ligand was 240 s and the natural dissociation occurred at 480 s. The 200 µl sample flowed through the chip for 240 s at a constant flow rate of 20 µl/min in each cycle.
The combined compounds can be dissociated from the coating surface by acid and alkali. […] Finally, the kinetic parameters of the binding reactions were calculated and analyzed using Trace Drawer software (Ridgeview Instruments AB, Sweden).

[8] = Mouse pharmacokinetic study, plasma and brain by LC-MS
Experimental: as §5, §6, §7, §8

[9] = tested on: EGFR-mutated NSCLC brain metastases; parameters: method as in Liu et al., 2020; settings: patients, ref Liu et al., 2020; cited from earlier work
[10] = parameters: method as in Mok et al., 2017; settings: AURA3; ref Mok et al., 2017; cited from earlier work
[11] = female, BALB/c nude, mouse, brain, po, 25 mg/kg
[12] = female, BALB/c nude, mouse, plasma, po, 25 mg/kg
[13] = brain metastasis model, 25 mg/kg once daily

T1 sequence (P08183 whole entry): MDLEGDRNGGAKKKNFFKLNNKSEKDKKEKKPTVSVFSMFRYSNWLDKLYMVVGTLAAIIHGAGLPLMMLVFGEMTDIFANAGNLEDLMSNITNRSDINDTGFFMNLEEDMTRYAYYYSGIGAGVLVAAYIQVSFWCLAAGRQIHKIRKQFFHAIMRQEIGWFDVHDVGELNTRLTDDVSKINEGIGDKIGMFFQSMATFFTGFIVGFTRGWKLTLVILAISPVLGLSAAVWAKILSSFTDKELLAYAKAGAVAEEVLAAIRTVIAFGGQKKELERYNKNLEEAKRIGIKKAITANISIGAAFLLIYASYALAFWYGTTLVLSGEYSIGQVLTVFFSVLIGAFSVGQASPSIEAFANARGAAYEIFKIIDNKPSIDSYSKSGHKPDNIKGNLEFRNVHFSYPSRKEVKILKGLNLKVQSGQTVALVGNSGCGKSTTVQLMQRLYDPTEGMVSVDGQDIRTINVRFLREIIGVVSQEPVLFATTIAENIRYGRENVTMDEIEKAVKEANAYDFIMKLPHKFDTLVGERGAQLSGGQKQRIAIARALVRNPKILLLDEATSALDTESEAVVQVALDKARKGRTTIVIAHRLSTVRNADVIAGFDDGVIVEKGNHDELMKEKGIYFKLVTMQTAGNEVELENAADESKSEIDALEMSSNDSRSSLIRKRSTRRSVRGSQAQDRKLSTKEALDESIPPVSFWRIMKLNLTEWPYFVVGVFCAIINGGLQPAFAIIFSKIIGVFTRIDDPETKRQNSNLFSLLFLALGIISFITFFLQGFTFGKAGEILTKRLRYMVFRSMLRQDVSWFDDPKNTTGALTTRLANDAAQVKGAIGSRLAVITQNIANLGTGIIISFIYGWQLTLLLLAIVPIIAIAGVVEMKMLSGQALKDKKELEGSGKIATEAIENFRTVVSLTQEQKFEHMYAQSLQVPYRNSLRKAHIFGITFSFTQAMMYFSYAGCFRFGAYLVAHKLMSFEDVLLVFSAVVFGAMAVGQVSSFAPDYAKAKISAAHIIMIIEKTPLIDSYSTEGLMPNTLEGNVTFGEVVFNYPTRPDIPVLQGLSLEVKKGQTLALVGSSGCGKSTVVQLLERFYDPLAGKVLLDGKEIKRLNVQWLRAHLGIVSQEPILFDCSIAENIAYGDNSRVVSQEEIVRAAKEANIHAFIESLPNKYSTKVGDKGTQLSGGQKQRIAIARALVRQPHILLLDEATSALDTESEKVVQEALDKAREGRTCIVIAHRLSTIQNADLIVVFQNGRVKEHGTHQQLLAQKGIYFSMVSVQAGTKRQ
Chain of EGFR T790M mutant protein (P00533 25-1210 T790M): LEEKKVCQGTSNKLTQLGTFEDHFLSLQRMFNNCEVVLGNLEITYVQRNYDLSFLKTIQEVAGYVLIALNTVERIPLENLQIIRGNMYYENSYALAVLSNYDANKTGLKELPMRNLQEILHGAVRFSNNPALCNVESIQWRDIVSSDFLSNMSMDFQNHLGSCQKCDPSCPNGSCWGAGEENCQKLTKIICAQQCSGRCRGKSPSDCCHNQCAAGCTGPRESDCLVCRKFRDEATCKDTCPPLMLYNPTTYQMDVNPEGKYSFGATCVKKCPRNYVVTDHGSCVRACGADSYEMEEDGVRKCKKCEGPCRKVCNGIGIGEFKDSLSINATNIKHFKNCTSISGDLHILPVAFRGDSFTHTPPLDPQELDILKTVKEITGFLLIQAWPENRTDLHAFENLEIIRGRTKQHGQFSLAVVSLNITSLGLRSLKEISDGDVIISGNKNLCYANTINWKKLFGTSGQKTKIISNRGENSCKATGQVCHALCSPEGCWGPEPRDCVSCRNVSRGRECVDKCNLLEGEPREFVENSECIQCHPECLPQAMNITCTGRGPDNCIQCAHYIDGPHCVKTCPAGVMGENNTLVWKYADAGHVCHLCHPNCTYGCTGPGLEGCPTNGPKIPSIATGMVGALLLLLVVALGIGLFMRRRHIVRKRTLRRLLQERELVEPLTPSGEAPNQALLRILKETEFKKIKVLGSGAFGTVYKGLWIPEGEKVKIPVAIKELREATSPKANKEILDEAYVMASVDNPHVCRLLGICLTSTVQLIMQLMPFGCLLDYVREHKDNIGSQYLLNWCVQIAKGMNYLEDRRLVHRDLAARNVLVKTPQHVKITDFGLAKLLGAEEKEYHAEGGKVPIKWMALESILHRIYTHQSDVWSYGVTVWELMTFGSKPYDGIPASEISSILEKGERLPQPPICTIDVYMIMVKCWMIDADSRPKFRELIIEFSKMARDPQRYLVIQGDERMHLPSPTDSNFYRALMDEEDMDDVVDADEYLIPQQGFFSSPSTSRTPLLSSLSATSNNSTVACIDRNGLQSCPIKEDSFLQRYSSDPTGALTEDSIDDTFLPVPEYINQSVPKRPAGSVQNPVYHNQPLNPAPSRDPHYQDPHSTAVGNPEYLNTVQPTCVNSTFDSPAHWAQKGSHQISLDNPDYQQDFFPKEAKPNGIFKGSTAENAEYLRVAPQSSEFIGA

C=CC(=O)Nc1cc(Nc2nccc(-c3c[nH]c4ccccc34)n2)c(OC)cc1N(C)CCN(C)C [AZ5104]
concentration of active metabolite in the human body [1]: ~10%

C=CC(=O)Nc1cc(Nc2nccc(-c3cn(C4CC4)c4ccccc34)n2)c(OC)cc1N(C)CCNC [HAS-719]
efflux ratio (ER) (ABCB1; ABCB1-MDCK, 1 μM): 29.83 | efflux ratio (ER) (ABCB1; ABCB1-MDCK, 10 μM): 12.26 | efflux ratio (ER) (ABCB1; ABCB1-MDCK, 20 μM): 5.5 | ABCB1 transporter substrate assessment (ABCB1): ABCB1 and BCRP transporter substrates | efflux ratio (ER) (BCRP; BCRP-MDCK, 1 μM): 11.59 | efflux ratio (ER) (BCRP; BCRP-MDCK, 10 μM): 5.07 | efflux ratio (ER) (BCRP; BCRP-MDCK, 20 μM): 2.49 | BCRP transporter substrate assessment (BCRP): ABCB1 and BCRP transporter substrates | efflux ratio (ER) (MDCK cell monolayers; 1 μM): 2.81 | efflux ratio (ER) (MDCK cell monolayers; 10 μM): 1.61 | efflux ratio (ER) (MDCK cell monolayers; 20 μM): 1.62 | Tissue/plasma AUC ratio [2]: 0.21

C=CC(=O)Nc1cc(Nc2nccc(-c3cn(C4CC4)c4ccccc34)n2)c(OC)cc1N(C)CCN(C)C [almonertinib]
neurological function (sticky dot test, vertical test) ([3]; 25 mg/kg, vs control group): significant improvement in neurological function | growth of intracranial tumors (bioluminescence) [3]: effectively inhibited the growth of intracranial tumors | number of proliferative cells (Ki-67, histological analysis of brain tissue) ([3]; brain metastasis model): significantly decreased | body weight of mice ([3]; brain metastasis model): decreased after administration | overall survival time of mice ([3]; brain metastasis model, 10 and 25 mg/kg, 60 days): longer than that of mice in the osimertinib group | tumor growth / regression ([4]; 5 mg/kg, spinal cord metastatic mice): can inhibit tumor growth but cannot cause tumor regression | biofluorescence signal of intracranial and spinal cord tumors ([4]; high-dose group (25 mg/kg Qd)): significantly reduced | proliferation of tumor cells (H&E and Ki-67 staining of spinal cord) ([4]; high-dose group (25 mg/kg)): significant inhibition in the proliferation of tumor cells | biofluorescence signal of intracranial and spinal cord tumors ([4]; low-dose group (5 mg/kg Qd)): did not change significantly | survival time ([4]; spinal cord metastasis model, vs osimertinib-administered group): longer survival time | ABCB1 transporter substrate assessment (ABCB1): ABCB1 and BCRP transporter substrates | efflux ratio at 1 μM (ABCB1; human, MDCK-MDR1, ABCB1-MDCK, 1 μM, read-out: efflux ratio (ER)): 5.2 | efflux ratio at 10 μM (ABCB1; human, MDCK-MDR1, ABCB1-MDCK, 10 μM, read-out: efflux ratio (ER)): 2.75 | efflux ratio at 20 μM (ABCB1; human, MDCK-MDR1, ABCB1-MDCK, 20 μM, read-out: efflux ratio (ER)): 1.84 | BCRP transporter substrate assessment (BCRP): ABCB1 and BCRP transporter substrates | efflux ratio at 1 μM (BCRP; human, BCRP-MDCK, 1 μM, read-out: efflux ratio (ER)): 4.62 | efflux ratio at 10 μM (BCRP; human, BCRP-MDCK, 10 μM, read-out: efflux ratio (ER)): 2.51 | efflux ratio at 20 μM (BCRP; human, BCRP-MDCK, 20 μM, read-out: efflux ratio (ER)): 1.53 | efflux ratio at 1 μM ([5]; 1 μM): 1.1 | efflux ratio at 10 μM ([5]; 10 μM): 1.42 | efflux ratio at 20 μM ([5]; 20 μM): 1.02 | intracranial tumor response ([6]; 110 mg po qd first-line, after 8 weeks): partially responded | abnormalities during treatment ([6]; 110 mg po qd): no other abnormalities | Kd [7]: 11.1 µM | detectability in plasma and brain tissue ([8]; 24 h after 25 mg/kg oral): could still be detected | BBB penetration ([8]; PC9-LUC BM xenograft mice, almonertinib 25 mg/kg oral): excellent BBB penetration | tmax ([8]; brain, almonertinib 25 mg/kg oral): 2 h | AUC(0-t) [8, 11]: 30.6 µM·h | Cmax [8, 11]: 5.36 µM | MRT last [8, 11]: 6.19 h | Kp ([8]; female, BALB/c nude, mouse, brain/plasma, po, 25 mg/kg): 1.82 | AUC(0-t) [8, 12]: 16.9 µM·h | Cmax [8, 12]: 6.41 µM | MRT last [8, 12]: 5.42 h | tmax ([8]; female, BALB/c nude, mouse, plasma, po, 25 mg/kg, tmax, almonertinib 25 mg/kg oral): 0.5 h

C#Cc1cccc(Nc2ncnc3cc4c(cc23)OCCOCCOCCO4)c1 [icotinib]
median intracranial progression free survival (PFS) [9]: 8.4 months

C=CC(=O)Nc1cc(Nc2nccc(-c3cn(C)c4ccccc34)n2)c(OC)cc1N(C)CCN(C)C [osimertinib]
growth of intracranial tumors (bioluminescence) [3]: effectively inhibited the growth of intracranial tumors | skin of mice [3, 13]: appeared to be keratinized | weight loss [3, 13]: more obvious | body weight of mice ([3]; brain metastasis model): decreased after administration | biofluorescence signal of intracranial and spinal cord tumors ([4]; high-dose group (25 mg/kg Qd)): significantly reduced | biofluorescence signal of intracranial and spinal cord tumors ([4]; low-dose group (5 mg/kg Qd)): did not change significantly | grade 1 and 2 diarrhea, patients affected [10]: 41% | grade 1 and 2 rashes, patients affected [10]: 34%
